In ChEMBL document CHEMBL1122811, “Structure-activity studies on antidepressant 2,2-diarylethylamines” (J Med Chem, 1984) one finds ED50 and LD50 data, which are given here for 30 molecules.

The subject of data set [1] is Mus musculus. Kind of data set: Antidepressant activity measured by tetrabenazine (TBZ) induced ptosis in mice after intraperitoneal administration. The format is functional. Conditions: ip.
Data set [2] is filed under the species Mus musculus. Put plainly: Antidepressant activity measured by effects on […] (TBZ) inhibited exploratory activity. The class given is functional.
Data set [3] deals with Mus musculus. Put plainly: Compound was evaluated for antidepressant activity measured by tetrabenazine (TBZ) induced exploratory activity in mice after 60 mg/kg intraperitoneal administration; inactive. The format is functional, organism-based. On the set-up: dose 60 mg/kg.
Data set [4] deals with Mus musculus. Kind of data set: Compound was evaluated for antidepressant activity measured by tetrabenazine (TBZ) induced ptosis in mice after 60 mg/kg intraperitoneal administration; inactive. The format is functional, organism-based. On the set-up: dose 60 mg/kg.
In data set [5] the test system is Mus musculus. Put plainly: Antidepressant activity measured by maximal electroshock seizure threshold (MEST) assay in TBZ treated mice after ip administration. The format is functional.
A short description of data set [6]: Compound was evaluated for 50% lethal dose in mice; LD50 range is 30-100. The class given is ADME, organism-based. As to conditions: mouse, in vivo.
The test system of data set [7] is Mus musculus. Kind of data set: Antidepressant activity measured by maximal electroshock seizure threshold (MEST) assay in untreated mice after ip administration. The format is functional.
For data set [8], the system named is Mus musculus. Put plainly: Compound was evaluated for antidepressant activity measured by tetrabenazine (TBZ) induced ptosis in mice after 30 mg/kg intraperitoneal administration. The format is functional. Conditions: ip.
Data set [9] relates to Mus musculus. Put plainly: Compound was evaluated for antidepressant activity measured by tetrabenazine (TBZ) induced exploratory activity in mice after 30 mg/kg intraperitoneal administration. The class given is functional. As to conditions: ip.
Data set [10] relates to Mus musculus. Put plainly: Compound was evaluated for antidepressant activity measured by tetrabenazine (TBZ) induced exploratory activity in mice after 30 mg/kg intraperitoneal administration; inactive. The format is functional, organism-based. More on the design: dose 30 mg/kg.
The subject of data set [11] is Mus musculus. Put plainly: Compound was evaluated for antidepressant activity measured by tetrabenazine (TBZ) induced ptosis in mice after 30 mg/kg intraperitoneal administration; inactive. The format is functional, organism-based. More on the design: dose 30 mg/kg.
The test system of data set [12] is Mus musculus. Kind of data set: Compound was evaluated for antidepressant activity measured by tetrabenazine (TBZ) induced exploratory activity in mice after 30 mg/kg intraperitoneal administration; Inactive. The format is functional, organism-based. More on the design: dose 30 mg/kg.
Data set [13] has as its system Mus musculus. Kind of data set: Compound was evaluated for antidepressant activity measured by tetrabenazine (TBZ) induced ptosis in mice after 30 mg/kg intraperitoneal administration; Inactive. The format is functional, organism-based. On the set-up: dose 30 mg/kg.
The nature of data set [14]: Compound was evaluated for 50% lethal dose in mice; LD50 range 100-300 mg/kg. The class given is ADME, organism-based. Conditions: mouse, in vivo.
Data set [15] relates to Mus musculus. Kind of data set: dl form was evaluated for antidepressant activity measured by tetrabenazine (TBZ) induced exploratory activity in mice after intraperitoneal administration. The class given is functional. As to conditions: ip.
For data set [16], the system named is Mus musculus. Put plainly: Meso form was evaluated for antidepressant activity measured by tetrabenazine (TBZ) induced ptosis in mice after intraperitoneal administration (Two diastereomers (7/6) were present). The format is functional. Conditions: ip.
In data set [17] the test system is Mus musculus. Kind of data set: dl form was evaluated for antidepressant activity measured by tetrabenazine (TBZ) induced ptosis in mice after intraperitoneal administration. Conditions: ip. The class given is functional.
Data set [18] relates to Mus musculus. Kind of data set: Meso form was evaluated for antidepressant activity measured by tetrabenazine (TBZ) induced exploratory activity in mice after intraperitoneal administration. The class given is functional. Conditions: ip.
Data set [19] in a line: Compound was evaluated for 50% lethal dose in mice; LD50 range is 100-300. The format is ADME, organism-based. Conditions: mouse, in vivo.
A short description of data set [20]: Compound was evaluated for 50% lethal dose in mice; LD50 range 30-100 mg/kg. The format is ADME, organism-based. Conditions: mouse, in vivo.
For data set [21], the system named is Mus musculus. Put plainly: Compound was evaluated for antidepressant activity measured by tetrabenazine (TBZ) induced exploratory activity in mice after 60 mg/kg intraperitoneal administration; Inactive. The class given is functional, organism-based. More on the design: dose 60 mg/kg.
For data set [22], the system named is Mus musculus. Put plainly: Compound was evaluated for antidepressant activity measured by tetrabenazine (TBZ) induced ptosis in mice after intraperitoneal administration; Lethal at 60 Mg/kg. The format is functional. Conditions: ip.
Data set [23] concerns Mus musculus. Put plainly: Compound was evaluated for antidepressant activity measured by tetrabenazine (TBZ) induced ptosis in mice after 10 mg/kg intraperitoneal administration; Inactive. The format is functional, organism-based. On the set-up: dose 10 mg/kg.
A short description of data set [24]: Compound was evaluated for 50% lethal dose in mice; LD50 range 300-1000 mg/kg. As to conditions: mouse, in vivo. The format is ADME, organism-based.

Molecules are shown by their SMILES. Calls of active or inactive are those of the source. Some results are limits rather than exact numbers.

Regarding `CCNCCC(c1ccccc1)c1ccccc1`, the median effective dose (ED50) in the data set with Mus musculus [1] was found to be 23 mg/kg; in the data set listed under Mus musculus [2], 15 mg/kg.
In the case of `COc1ccc(C(CN)c2ccc(OC)c(OC)c2)cc1OC`, the ED50 result with Mus musculus [3] and in the data set on Mus musculus [4] was “inactive” throughout.
With `CN(C)CC(c1ccccc1)c1ccccc1`, the ED50 turned out to be 3 mg/kg with Mus musculus [5], 2.5 mg/kg in the data set with Mus musculus [1], 9 mg/kg in the data set filed under Mus musculus [2] and 7 mg/kg in the data set on Mus musculus [7]. In data set [6], the LD50 came out at 100 mg/kg.
Regarding `CNCC(c1ccccc1)c1ccc(OC)c(OC)c1` (configuration not stated), the ED50 with Mus musculus [1] is 11 mg/kg; in the data set filed under Mus musculus [2] it was more than 30 mg/kg.
On the same counts, the results for `CC(N)C(c1ccccc1)c1ccccc1` (configuration not stated) are 3.8 mg/kg and 3.5 mg/kg.
On to `CNCC(c1ccccc1)c1ccccc1`, for which the ED50 in the data set on Mus musculus [5] is 9 mg/kg; in the data set with Mus musculus [1] it was 2.3 mg/kg; in the data set listed under Mus musculus [2] it was 5 mg/kg; with Mus musculus [7], 8.2 mg/kg. This molecule also had a median lethal dose (LD50) in [6] of 30 mg/kg.
Consider `CNCC(c1ccc(Cl)cc1)c1ccc(Cl)cc1`, for which the ED50 in the data set with Mus musculus [8] was determined as 13 mg/kg; with Mus musculus [9] it was 14 mg/kg.
Consider `COc1ccc(C(CN(CCO)CCO)c2ccccc2)cc1OC` (configuration not stated), for which the ED50 result with Mus musculus [3] and in the data set on Mus musculus [4] was “inactive” throughout.
As to `OCCN(CCO)CCC(c1ccccc1)c1ccccc1`, the ED50 worked out at 20 mg/kg in the data set on Mus musculus [1] and 24 mg/kg in the data set filed under Mus musculus [2].
For the molecule `OCCN(CCO)C(Cc1ccccc1)c1ccccc1` (configuration not stated), the ED50 result in the data set on Mus musculus [10] and with Mus musculus [11] was “inactive” in each case.
Turning to `OCCN(CCO)CC(c1ccccc1)C1CCCCC1` (configuration not stated), the figures for the ED50 in the data set on Mus musculus [1] and in the data set listed under Mus musculus [2] were 22 mg/kg and approximately 50 mg/kg, respectively.
Molecule `COc1ccc(C(CN(C)C)c2ccccc2)cc1OC` (configuration not stated) came in with an ED50 in the data set with Mus musculus [1] of 14 mg/kg. Besides, the ED50 result in the data set with Mus musculus [10] was “inactive”.
Regarding `NCC(c1ccc(Cl)cc1)c1ccc(Cl)cc1`, the ED50 result with Mus musculus [12] and with Mus musculus [13] was “inactive” in each case.
As for `CN(C)CC(c1ccc(Cl)cc1)c1ccc(Cl)cc1`, the ED50 in the data set with Mus musculus [1] is 16 mg/kg; in the data set listed under Mus musculus [2] it was 11 mg/kg.
`OCCN(CCO)CC(c1ccccc1)c1ccccc1`: the ED50 in the data set on Mus musculus [5] was found to be 15.4 mg/kg; in the data set on Mus musculus [1], 2 mg/kg; in the data set on Mus musculus [7], 20.3 mg/kg. This molecule also returned an LD50 in data set [14] of 300 mg/kg.
Regarding `CC(O)CN(CC(C)O)CC(c1ccccc1)c1ccccc1` (configuration not stated), the ED50 in the data set with Mus musculus [15] was found to be 11 mg/kg; in the data set with Mus musculus [16], 7 mg/kg; with Mus musculus [17], 6 mg/kg; in the data set on Mus musculus [18] it was 18 mg/kg.
With `OCCN(CCO)CC(O)(c1ccccc1)c1ccccc1`, the ED50 in the data set with Mus musculus [1] was determined as 8 mg/kg; in the data set listed under Mus musculus [2], 80 mg/kg.
As to `CN(C)CCCN1c2ccccc2CCc2ccccc21` [IMIPRAMINE], the ED50 worked out at 14.9 mg/kg in the data set with Mus musculus [5], 0.9 mg/kg in the data set on Mus musculus [1], 1.3 mg/kg in the data set listed under Mus musculus [2] and 20.3 mg/kg with Mus musculus [7].
As to `NCC(c1ccccc1)c1ccccc1`, the ED50 was more than 15 mg/kg in the data set on Mus musculus [5], 1.7 mg/kg with Mus musculus [1], 1.8 mg/kg in the data set listed under Mus musculus [2] and 10 mg/kg in the data set with Mus musculus [7]. Moreover, in data set [6], the LD50 is 30 mg/kg.
With `c1ccc2c(c1)cc1n2CCCNC1` [AZEPINDOLE], the median effective dose (ED50) in the data set with Mus musculus [5] worked out at 32 mg/kg; with Mus musculus [1] it was 9 mg/kg; in the data set filed under Mus musculus [2], 11 mg/kg; in the data set with Mus musculus [7], 46 mg/kg. The LD50 in [19] turned out to be 100 mg/kg.
For the molecule `COc1ccc(C(CN)c2ccccc2)cc1OC` (configuration not stated), the ED50 entry with Mus musculus [10] and with Mus musculus [11] was “inactive” throughout.
For `CC(=O)OCCN(CCOC(C)=O)CC(c1ccccc1)c1ccccc1`, the ED50 with Mus musculus [1] is 13 mg/kg; in the data set listed under Mus musculus [2], 23 mg/kg.
As to `NCC(O)(c1ccccc1)c1ccccc1`, the ED50 was found to be 9.9 mg/kg with Mus musculus [5], 6 mg/kg in the data set on Mus musculus [1], 9 mg/kg in the data set listed under Mus musculus [2] and 8.1 mg/kg in the data set on Mus musculus [7]. Besides, the LD50 in data set [20] came to 100 mg/kg.
Regarding `COc1ccc(C(CN)c2ccc(OC)cc2)cc1`, the ED50 entry with Mus musculus [21] was “inactive”. The ED50 in the data set on Mus musculus [22] is more than 10 mg/kg.
For the molecule `NCC(F)(c1ccccc1)c1ccccc1`, the ED50 entry with Mus musculus [12] and in the data set on Mus musculus [23] was “inactive” each time.
Consider `CCN(CCO)CCC(c1ccccc1)c1ccccc1`, for which the ED50 is 21.4 mg/kg with Mus musculus [5], 1.9 mg/kg in the data set on Mus musculus [1], 10 mg/kg in the data set filed under Mus musculus [2] and more than 25 mg/kg with Mus musculus [7]. In [14], the LD50 is 300 mg/kg.
Take `OCCN(CCO)CCc1ccccc1`: the LD50 in data set [24] turned out to be 1000 mg/kg. The ED50 in the data set with Mus musculus [5] was more than 50 mg/kg; in the data set on Mus musculus [1], 12 mg/kg; in the data set listed under Mus musculus [2] it was 17 mg/kg; in the data set on Mus musculus [7] it was more than 50 mg/kg.
As to `COc1ccc(C(CN(CCO)CCO)c2ccc(OC)c(OC)c2)cc1OC`, the ED50 result in the data set with Mus musculus [3] and in the data set with Mus musculus [4] was “inactive” throughout.
On to `COc1ccc(C(CN(CCO)CCO)c2ccc(OC)cc2)cc1`, for which the ED50 result with Mus musculus [3] and in the data set with Mus musculus [4] was “inactive” throughout.
Take `OCCN(CCO)CC(c1cccs1)c1cccs1`: the ED50 entry in the data set on Mus musculus [10] and in the data set with Mus musculus [11] was “inactive” in each case.
